Key:
[1] = tested on: AGT (angiotensinogen; NM_000029); assay: Oligo microarray gene expression in A549 cells, AGT; format: cell-based, human; details: A549, 48 hours at the concentration of Example 1-2, Cy5/Cy3 ratio
Protocol: (§1) A549 cells were distributed in 6-well plate at the density of 25×10^4 cells/ml, to which propionaldehyde was treated for 48 hours at the concentration determined in Example <1-2>. Total RNA was extracted from the cells by using trizol reagent according to the manufacturer's protocol (Invitrogen life technologies, USA), followed by purification by using RNease mini kit (Qiagen, USA). Genomic DNA was eliminated by using RNase-free DNase set (Qiagen, USA) during the RNA purification. The amount of total RNA was measured with spectrophotometer, and the concentration was confirmed by ND-1000 Spectrophotometer (Thermo Fisher Scientific Inc., USA) and Agilent 2100 Bioanalyzer (Agilent).
(§2) For oligomicroarray analysis, cDNA was synthesized by using the total RNA obtained from the experimental group treated with propionaldehyde prepared in Example <2-1>. 30 μg of the obtained total RNA and 2 μg of oligo (dT) primer (1 μg/μl) were mixed together, followed by reaction at 65° C. for 10 minutes, which was transferred into ice for annealing. […]
(§3) Hybridization images on the slide were scanned with Agilent C scanner (Agilent technologies, CA, USA). […] To obtain gene expression rate, the scanned images were analyzed by using Agilent Feature Extraction 10.7.3.1 (Agilent technologies, CA, USA). […]

[2] = tested on: LPAR1 (lysophosphatidic acid receptor 1; NM_057159); assay: Oligo microarray gene expression in A549 cells, LPAR1; format: cell-based, human; details: A549, 48 hours at the concentration of Example 1-2, Cy5/Cy3 ratio
Protocol: as §1, §2, §3

[3] = tested on: A549 cells; assay: Human whole genome oligo microarray, genome-wide expression change; format: cell-based; details: A549, 48 hours
Protocol: In a preferred embodiment of the present invention, to screen a biomarker for the identification of propionaldehyde specific exposure, the present inventors treated propionaldehyde to the human lung cancer tissue derived cell line A549 and then investigated cytotoxicity therein. […] Based on the result of that experiment, the concentration of propionaldehyde was determined. Propionaldehyde was treated to the human lung cancer tissue derived cell line at the determined concentration. From the cell line treated with propionaldehyde, mRNA was extracted, followed by synthesis of cDNA which was labeled with fluorescein (Cy5). The control not treated with propionaldehyde was labeled with Cy3. The fluorescein-labeled cDNA was hybridized with 8×60 k oligomicroarray chip [Human whole genome oligo microarray (Agilent, USA)], followed by scanning fluorescence image to analyze gene expression patterns (see FIG. 2). […] 5 kinds of genes whose expressions were increased or decreased specifically by propionaldehyde alone among […] (butylaldehyde, valeradehyde, hexanal, heptanal, octanal, and propionaldehyde) were selected by using real-time quantitative PCR (see FIG. 3, Table 3, and Table 4). […]
A549 cells were distributed in 6-well plate at the density of 25×10^4 cells/ml, to which propionaldehyde was treated for 48 hours at the concentration determined in Example <1-2>. […]

[4] = tested on: HMOX1 (heme oxygenase 1; NM_002133); assay: Oligo microarray gene expression in A549 cells, HMOX1; format: cell-based, human; details: A549, 48 hours at the concentration of Example 1-2, Cy5/Cy3 ratio
Protocol: as §1, §2, §3

[5] = tested on: A549 cells; assay: Cytotoxicity test (MTT assay); format: cell-based, human; details: A549, result in words
Protocol: (§4) A549 cells (Korean Cell Line Bank), the human lung cancer tissue derived cell line, were cultured in 100 mm dish containing RPMI (Gibro-BRL, USA) supplemented with 10% FBS until the confluency reached 80%. The present inventors selected propionaldehyde, one of aldehydes among many volatile organic compounds exposed in environment, as a target material based on the previous studies and reports, and then dissolved in DMSO (dimethyl sulfoxide). The concentration of vehicle was up to 0.1% in every experiment.
(§5) MTT assay was performed with A549 cell line according to the method of Mossman, et al (J. Immunol. Methods, 65, 55-63, 1983).
(§6) Particularly, the cells were distributed in 24-well plate (3.5×10^4 cells/well) containing RPMI (Gibro-BRL, USA) and then treated with propionaldehyde dissolved in DMSO. 48 hours later, 5 mg/ml of MTT (3-4,5-dimethylthiazol-2,5-diphenyltetra zolium bromide) was added thereto, followed by culture at 37° C. for 3 hours. Then, the medium was discarded and the formed formazan crystal was dissolved in […] of DMSO, which was aliquoted in 96-well plate. OD540 was measured.

[6] = Cytotoxicity test (MTT assay); format: cell-based, human; details: human, A549 cells; A549 cell line, 48 hours, MTT, OD540; read-out: IC20 (the concentration showing 20% survival rate)
Protocol: as §4, §5, §6

[7] = tested on: TNFSF10 (tumor necrosis factor (ligand) superfamily, member 10; NM_003810); assay: Oligo microarray gene expression in A549 cells, TNFSF10; format: cell-based, human; details: A549, 48 hours at the concentration of Example 1-2, Cy5/Cy3 ratio
Protocol: as §1, §2, §3

[8] = tested on: AGT, LPAR1, SECTM1, TNFSF10, HMOX1; assay: Quantitative real-time RT-PCR of the 5 marker genes; format: cell-based, human; details: endogenous control MDH1; result in words
Protocol: At that time, to confirm the propionaldehyde specific expression changes, the said genes were investigated with their expression patterns using the additional 5 aldehydes listed in Table 3.
Particularly, cDNA was synthesized by performing reverse transcription by using oligo dT primer and Superscript kit (Omniscipt™ kit, Qiagen, Co., USA). 0.2 μl of the synthesized cDNA was mixed with 3.8 μl of water, 0.5 μl of sense primer, 0.5 μl of anti-sense primer, and 5 μl of SYBR Green I staining supermix (Bio-rad, USA), which was loaded in PCR tube, followed by reaction in My IQ real-time PCR machine designed to execute reaction as follows: step 1, 95° C. for 3 minutes; step 2 (45 cycles), step 2-1, 95° C. for 10 seconds; step 2-2, 57° C. for 45 seconds; step 3, 95° C. for 1 minute; step 4, 55° C. for 1 minute; step 5 (80 cycles), 55° C. for 10 seconds. The PCR product was stained with SYBR Green I (Bio-rad, USA) to quantify thereof. SYBR Green I staining is the method taking advantage of intercalating with double-stranded DNA, and thus the more double-stranded DNA is produced, the stronger the fluorescence intensity is obtained during PCR. Primers for the target gene used for PCR and the endogenous control (MDH1) were added to SYBR Green master-mix, followed by PCR. […] Then, PCR was performed and the result was analyzed by using quantitative software.

[9] = tested on: SECTM1 (secreted and transmembrane 1; NM_003004); assay: Oligo microarray gene expression in A549 cells, SECTM1; format: cell-based, human; details: A549, 48 hours at the concentration of Example 1-2, Cy5/Cy3 ratio
Protocol: as §1, §2, §3

Question: With `CCC=O` [propionaldehyde] as the molecule, how does the “Median ratio of microarray by propionaldehyde exposure, AGT” value [1] read?
Answer: The value was 0.55.

Question: What about the “Median ratio of microarray by propionaldehyde exposure, LPAR1” value [2] of the same molecule?
Answer: The value was 0.62.

Question: And the “genes showing at least 1.5 fold higher expression (Cy5/Cy3 ratio)” value ([3]; 900 genes out of 42,405)?
Answer: Its value is 2.12%.

Question: What about the “genes showing lower expression (Cy5/Cy3 ratio lower than 0.66)” value ([3]; 1,522 genes out of 42,405) of the same molecule?
Answer: The value was 3.59%.

Question: What about the “Median ratio of microarray by propionaldehyde exposure, HMOX1” value [4] of the same molecule?
Answer: Its value is 1.52.

Question: What about the “cytotoxicity in the human lung cancer tissue derived cell line” value [5] of the same molecule?
Answer: The value was “had cytotoxicity”.

Question: And the IC20 at 48 h [6]?
Answer: The IC20 at 48 h was 2500 µM.

Question: What about the “Median ratio of microarray by propionaldehyde exposure, TNFSF10” value [7] of the same molecule?
Answer: The value was 0.65.

Question: And the “expression patterns of the 5 genes by real-time RT-PCR” value [8]?
Answer: Its value is “very similar to the results of microarray chip analysis”.

Question: And the “Median ratio of microarray by propionaldehyde exposure, SECTM1” value [9]?
Answer: The value was 0.63.
